Results: PMC10296281 (2023)

Key:
Assay in all cases: bio-layer interferometry, 1:1 local fit
[1] = tested on: Sequence 4 (6 to 75) (DNA, aptamer) CACAGAGGTCAGATGACTTCAGTGAGTTGTCCCACGGTCGGCGAGTCGGTGGTAGCCTATGCGTGCTACC; details: 100 mM NaCl, 5 mM KCl, 2 mM MgCl2, 1 mM CaCl2; 20 mM Tris-HCl, 0.02 Tween 20, pH 7.6; R2 0.945
[2] = tested on: Sequence 11 (41 to 80) (DNA, aptamer) GGTCGGCGAGTCGGTGGTAGCCTATGCGTGCTACCGTGAA; details: 100 mM NaCl, 5 mM KCl, 2 mM MgCl2, 1 mM CaCl2; 20 mM Tris-HCl, 0.02 Tween 20, pH 7.6; R2 0.757
[3] = tested on: Sequence 1 (original aptamer, 1 to 80) (DNA, aptamer) AGCAGCACAGAGGTCAGATGACTTCAGTGAGTTGTCCCACGGTCGGCGAGTCGGTGGTAGCCTATGCGTGCTACCGTGAA; details: 100 mM NaCl, 5 mM KCl, 2 mM MgCl2, 1 mM CaCl2; 20 mM Tris-HCl, 0.02 Tween 20, pH 7.6; R2 0.993
[4] = tested on: Sequence 10 (31 to 50) (DNA, aptamer) GTTGTCCCACGGTCGGCGAG; details: 100 mM NaCl, 5 mM KCl, 2 mM MgCl2, 1 mM CaCl2; 20 mM Tris-HCl, 0.02 Tween 20, pH 7.6; R2 0.699 (poor fit)
[5] = tested on: Sequence 8 (31 to 80) (DNA, aptamer) GTTGTCCCACGGTCGGCGAGTCGGTGGTAGCCTATGCGTGCTACCGTGAA; details: 100 mM NaCl, 5 mM KCl, 2 mM MgCl2, 1 mM CaCl2; 20 mM Tris-HCl, 0.02 Tween 20, pH 7.6; R2 0.853
[6] = tested on: Sequence 5 (21 to 80) (DNA, aptamer) ACTTCAGTGAGTTGTCCCACGGTCGGCGAGTCGGTGGTAGCCTATGCGTGCTACCGTGAA; details: 100 mM NaCl, 5 mM KCl, 2 mM MgCl2, 1 mM CaCl2; 20 mM Tris-HCl, 0.02 Tween 20, pH 7.6; R2 0.924
[7] = tested on: Sequence 9 (1 to 50) (DNA, aptamer) AGCAGCACAGAGGTCAGATGACTTCAGTGAGTTGTCCCACGGTCGGCGAG; details: 100 mM NaCl, 5 mM KCl, 2 mM MgCl2, 1 mM CaCl2; 20 mM Tris-HCl, 0.02 Tween 20, pH 7.6; R2 0.914
[8] = tested on: Sequence 3 (1 to 75) (DNA, aptamer) AGCAGCACAGAGGTCAGATGACTTCAGTGAGTTGTCCCACGGTCGGCGAGTCGGTGGTAGCCTATGCGTGCTACC; details: 100 mM NaCl, 5 mM KCl, 2 mM MgCl2, 1 mM CaCl2; 20 mM Tris-HCl, 0.02 Tween 20, pH 7.6; R2 0.946
[9] = tested on: Sequence 6 (1 to 60) (DNA, aptamer) AGCAGCACAGAGGTCAGATGACTTCAGTGAGTTGTCCCACGGTCGGCGAGTCGGTGGTAG; details: 100 mM NaCl, 5 mM KCl, 2 mM MgCl2, 1 mM CaCl2; 20 mM Tris-HCl, 0.02 Tween 20, pH 7.6; R2 0.905
[10] = tested on: Sequence 7 (21 to 60) (DNA, aptamer) ACTTCAGTGAGTTGTCCCACGGTCGGCGAGTCGGTGGTAG; details: 100 mM NaCl, 5 mM KCl, 2 mM MgCl2, 1 mM CaCl2; 20 mM Tris-HCl, 0.02 Tween 20, pH 7.6; R2 0.882
[11] = tested on: Sequence 2 (6 to 80) (DNA, aptamer) CACAGAGGTCAGATGACTTCAGTGAGTTGTCCCACGGTCGGCGAGTCGGTGGTAGCCTATGCGTGCTACCGTGAA; details: 100 mM NaCl, 5 mM KCl, 2 mM MgCl2, 1 mM CaCl2; 20 mM Tris-HCl, 0.02 Tween 20, pH 7.6; R2 0.973

Kd [1]: 661 nM
Kd [2]: 426 nM
Kd [3]: 704 nM
Kd [4]: 3109 nM
Kd [5]: 153 nM
Kd [6]: 1712 nM
Kd [7]: 92 nM
Kd [8]: 645 nM
Kd [9]: 4014 nM
Kd [10]: 370 nM
Kd [11]: 877 nM
SMILES: O=C(N[C@H](CO)[C@H](O)c1ccc([N+](=O)[O-])cc1)C(Cl)Cl
